Here are results for 1 compound from patent US5215900A, “Microbial transformation of a substituted pyridinone using streptomyces sp. MA6804” (Merck & Co., Inc., priority 1991, dated 1993).

SMILES strings stand for the structures.

Usually IC50 stands for the point on the concentration scale where inhibition reaches its midpoint.

The target of the test is T1, recombinant HIV reverse transcriptase (HIV RTR) (Human immunodeficiency virus type 1 group M subtype B, UniProt P04585).
T1 construct: recombinant HIV reverse transcriptase (HIV RTR)
As to the kind of experiment: Reverse Transcriptase Assay. The format is biochemical. The protocol: The assay measures the incorporation of tritiated deoxyguanosine monophosphate by recombinant HIV reverse transcriptase (HIV RTR) (or other RT) into acid-precipitable cDNA at the Km values of dGTP and poly r(C).oligo d(G)12-18.
Thirty uL of a reaction mixture containing equal volumes of: 500 mM Tris.HCl (pH 8.2), 300 mM MgCl2, 1200 mM KCl, 10 mM DTT, 400 μg/mL poly r(c).oligo d(G) [prepared by dissolving 1.5 mg (25 U) poly r(C).oligo d(G) in 1.5 ml sterile distilled H2 O and diluting to 400 μg/ml], 0.1 μuCi/μl [^3 H] dGTP, 160 μM dGTP, was added to 10 μl sterile distilled H2 O, 2.5 μl of potential inhibitor. Ten μL of 3.2 nM purified HIV RTR in tubes. The mixture was incubated at 37° C. for 45 minutes.
After incubation was complete, the tubes were cooled in ice for 5 minutes. Ice-cold 13% TCA containing 10 mM NaPPi (200 μl) was added and the mixture incubated on ice for 30 minutes. The precipitated cDNA was removed by filtration using presoaked glass filters [TCA, NaPPi ]. The precipitate was then washed with 1N HCl, 10 mM NaPPi. The filter discs were then counted in a scintillation counter.
Under these conditions [dGTP] and poly r(C).oligo d(G)12-18 each are approximately equal to the appropriate Km value. Approximately 5-6,000 cpm of [^3 H] GMP are incorporated into acid-precipitable material. The RT reaction is concentration-and time-dependent.

`Cc1[nH]c(=O)c(NCc2nc3c(C)ccc(C)c3o2)cc1C(C)O` (stereo not shown) [compound (I), 3-[(4,7-Dimethylbenzoxazol-2-yl)-methylamino]-5-(1-hydroxyethyl)-6-methyl-2(1H)-pyridinone]: the IC50 was around 430 nM.
